Values joined by “and” are separate entries in the source; they are usually repeats but may differ in a detail not shown here. Equal entries are not always repeated. “Also recorded” adds a separate entry of the source. Where two headings read alike, the source gives them in different places. Marks after values point to notes of the source that are not given here.
Tests used:
[1] = Oral bioavailability of PEG400:Labrasol formulation in dogs (earlier finding); details: dog, in vivo
[2] = Pharmacokinetics of SR13668 in monkeys after i.v. and oral gavage dosing; assay type: in vivo, cynomolgus monkeys (macaca fasicularis); details: for Fabs F/(1-ER): blood; for Vd/F: read-out: VZ/F
Text: Four non-naïve male beagle dogs (approximately 3 years of age; Ridglan Farms Inc. Mt. Horeb, Wis.) and four non-naïve male cynomolgus monkeys [cynos (macaca fasicularis); approximately 7 to 8 years of age; Charles River Laboratories, Inc., Houston, Tex.] were used in this study. Prior to experimental initiation for the present study, the attending veterinarian certified that the animals were healthy and free from disease and parasites.
For both species, each animal was part of each experimental group, with a 7-day interval between treatments to allow for washout of the dosing formulation and its effects. Dosing formulations of SR13668 were administered by oral gavage (intragastric) or intravenous (i.v.) injection as a single dose or once daily for seven consecutive days. Oral to doses were administered at a dosing volume of 5 mL/kg of body weight, while intravenous doses were administered at a dosing volume of 0.5 mL/kg of body weight. Dogs were dosed with 93.6 mg/m^2 SR13668 intravenously in DMSO:PEG300 15:85 (v/v) or orally in Solutol® vehicle (two groups, fed and after an overnight fast). Monkeys were dosed with 84.2 mg/m^2 SR13668 intravenously in DMSO:PEG300 15:85 (v/v) or orally (336.7 mg/m^2 SR13668 for the oral high dose group) in PEG400:Labrasol® 1:1 (v/v) or Solutol® vehicles. Vehicle control groups were used to assess the tolerability of the vehicle and for clinical pathology evaluations.
Blood samples were collected from each animal at 10 time points (0, 0.25, 0.5, 1, 2, 4, 6, 8, 12 and 24 hours post-dose) during the first and last 24-hour segment of each dosing regimen. For single intravenous dose experiments, samples were collected during the 24-hour post-dose period only. Samples were transferred to Vacutainer tubes containing ethylenediaminetetraacetic acid (EDTA; Fisher Scientific, Pittsburgh, Pa.). The tubes were inverted several times to mix and then placed on ice until storage or centrifugation for plasma preparation. After centrifugation, the plasma was transferred into storage tubes (0.5 mL), which were placed on dry ice and then stored frozen (approximately −70° C.).
Levels of SR13668 in plasma and blood were measured using a tandem mass to spectrometer (API 3000; Applied Biosystems/MDS Sciex, Foster City, Calif.) equipped with a high performance liquid chromatograph (Agilent 1200; Agilent Technologies, Wilmington, Del.). For SR13668 determination, a 100 μL blood or plasma aliquot was mixed with 1 mL of acetonitrile (ACN; Sigma-Aldrich, St. Louis, Mo.). After vortex-mixing for one minute, the sample was centrifuged at 4° C. and 7000 RPM for 10 minutes to remove precipitated proteins, and the supernatant was transferred to a clean tube and dried under nitrogen flow at room temperature (approximately 25° C.). After the evaporation was completed, the residue was reconstituted in 500 μL of ACN/water (v/v 70:30), and vortex-mixed and centrifuged again. An aliquot of the resulting supernatant was transferred to an autosampler tube for instrumental analysis.
A freshly prepared SR13668 standard curve was analyzed along with samples on each day of analysis. The chromatographic column was a Luna 3μ C18(2) 110 Å 30×2.0 mm (Phenomenex, Torrance, Calif.). The column temperature was maintained at 25° C., and a flow rate of 0.30 mL/min was used. The mobile phase consisted of MPA: formic acid in water (0.05%, v/v) and MPB: formic acid in ACN (0.05%, v/v). The mobile phase gradient was as follows: after injection, initial conditions with MPA at 40% were held for 0.01 min, decreased to 5% and held constant for 3 min, returning to initial conditions for another 3 min of re-equilibration time. Retention time of SR13668 was approximately 2.4 min. Total run time was 6 min. A turbo ion spray interface was used as the ion source operating in negative ion mode. Acquisition was performed in multiple reaction monitoring mode using ions 429.15 (Q1) and 414.12 (Q3) Dalton. […]

[3] = male, cynomolgus monkey, plasma, iv, 7.02 mg/kg, plasma, 84.2 mg/m^2 (7.02 mg/kg) i.v. single dose, DMSO:PEG300 15:85 v/v, fed
[4] = male, cynomolgus monkey, plasma, po, 7.02 mg/kg, 84.2 mg/m^2 (7.02 mg/kg) oral gavage, Solutol, seventh daily dose, fed
[5] = male, cynomolgus monkey, plasma, po, 7.02 mg/kg, plasma, 84.2 mg/m^2 (7.02 mg/kg) oral gavage, PEG400:Labrasol 1:1 v/v, seventh daily dose, fed
[6] = male, cynomolgus monkey, plasma, po, 28.06 mg/kg, plasma, 336.7 mg/m^2 (28.06 mg/kg) oral gavage, PEG400:Labrasol 1:1 v/v, seventh daily dose, fed
[7] = male, cynomolgus monkey, whole blood, iv, 7.02 mg/kg, whole blood, 84.2 mg/m^2 (7.02 mg/kg) iv single dose, DMSO:PEG300 15:85 v/v, fed
[8] = male, cynomolgus monkey, whole blood, po, 7.02 mg/kg, 84.2 mg/m^2 (7.02 mg/kg) oral gavage, Solutol, seventh daily dose, fed
[9] = male, cynomolgus monkey, whole blood, po, 7.02 mg/kg, whole blood, 84.2 mg/m^2 (7.02 mg/kg) oral gavage, PEG400:Labrasol 1:1 v/v, seventh daily dose, fed
[10] = male, cynomolgus monkey, whole blood, po, 28.06 mg/kg, whole blood, 336.7 mg/m^2 (28.06 mg/kg) oral gavage, PEG400:Labrasol 1:1 v/v, seventh daily dose, fed
[11] = male, cynomolgus, cynomolgus monkey, plasma, iv, 7.02 mg/kg, plasma, 84.2 mg/m^2 (7.02 mg/kg) i.v. single dose, DMSO:PEG300 15:85 v/v, fed
[12] = male, cynomolgus, cynomolgus monkey, plasma, po, 7.02 mg/kg, plasma, 84.2 mg/m^2 (7.02 mg/kg) oral gavage, PEG400:Labrasol 1:1 v/v, seventh daily dose, fed
[13] = plasma, 84.2 mg/m^2 (7.02 mg/kg) i.v. single dose, DMSO:PEG300 15:85 v/v, fed
[14] = whole blood, 84.2 mg/m^2 (7.02 mg/kg) iv single dose, DMSO:PEG300 15:85 v/v, fed

CCOC(=O)c1ccc2[nH]c3c(OC)c4[nH]c5ccc(C(=O)OCC)cc5c4cc3c2c1 [SR13668, 2,10-dicarbethoxy-6-methoxy-5,7-dihydro-indolo-(2,3-b)carbazole]
bioavailability [1]: < 1%
effect of fourfold dose increase on oral bioavailability ([2]; PEG400:Labrasol, 84.2 vs 336.7 mg/m^2): about a fourfold decrease in the bioavailability; also recorded: lower oral bioavailability
CL ([2]; blood clearance, 84.2 mg/m^2 (7.02 mg/kg) oral gavage, PEG400:Labrasol 1:1 v/v, fed): 121 mL/min/kg
CL ([2]; blood clearance, 84.2 mg/m^2 (7.02 mg/kg) oral gavage, Solutol, fed): 47.7 mL/min/kg
CL ([2]; blood clearance, 336.7 mg/m^2 (28.06 mg/kg) oral gavage, PEG400:Labrasol 1:1 v/v, fed): 332 mL/min/kg
Fabs F/(1-ER) ([2]; 84.2 mg/m^2 (7.02 mg/kg) oral gavage, PEG400:Labrasol 1:1 v/v, fed): 4.1%
Fabs F/(1-ER) ([2]; 84.2 mg/m^2 (7.02 mg/kg) oral gavage, Solutol, fed): 9.1%
Fabs F/(1-ER) ([2]; 336.7 mg/m^2 (28.06 mg/kg) oral gavage, PEG400:Labrasol 1:1 v/v, fed): 1.2%
ER CLiv/Q ([2]; iv blood clearance over hepatic blood flow 43.6 mL/min/kg): 0.083
AUC(0-inf) [2, 3]: 13300 ± 4920 ng·h/mL
Cmax [2, 3]: 6090 ± 1080 ng/mL
MRT [2, 3]: 6.9 ± 1.1 h
AUC(0-inf) [2, 4]: 837 ± 144 ng·h/mL
Cmax [2, 4]: 71.4 ± 16 ng/mL
MRT [2, 4]: 12.8 ± 2.1 h
Tmax [2, 4]: 8 ± 3.3 h
AUC(0-inf) [2, 5]: 437 ± 312 ng·h/mL
Cmax [2, 5]: 40.5 ± 38 ng/mL
MRT [2, 5]: 11.6 ± 1.3 h
CL/F ([2]; male, cynomolgus monkey, plasma, po, 7.02 mg/kg, plasma, 84.2 mg/m^2 (7.02 mg/kg) oral gavage, PEG400:Labrasol 1:1 v/v, seventh daily dose, fed, read-out: CL/F (converted)): 372 mL/min/kg
Vd/F [2, 5]: 203 ± 130 L/kg
CL/F ([2]; male, cynomolgus monkey, plasma, po, 7.02 mg/kg, plasma, 84.2 mg/m^2 (7.02 mg/kg) oral gavage, Solutol, seventh daily dose, fed, read-out: CL/F (converted)): 143 mL/min/kg
Vd/F ([2]; male, cynomolgus monkey, plasma, po, 7.02 mg/kg, plasma, 84.2 mg/m^2 (7.02 mg/kg) oral gavage, Solutol, seventh daily dose, fed): 90.5 ± 9.9 L/kg
AUC(0-inf) [2, 6]: 367 ± 154 ng·h/mL
Cmax [2, 6]: 43.7 ± 9.2 ng/mL
MRT [2, 6]: 9.1 ± 2.4 h
Tmax [2, 6]: 3.5 ± 1.9 h
CL/F ([2]; male, cynomolgus monkey, plasma, po, 28.06 mg/kg, plasma, 336.7 mg/m^2 (28.06 mg/kg) oral gavage, PEG400:Labrasol 1:1 v/v, seventh daily dose, fed, read-out: CL/F (converted)): 1440 mL/min/kg
Vd/F [2, 6]: 603 ± 236 L/kg
AUC(0-inf) [2, 7]: 35400 ± 12400 ng·h/mL
Cmax [2, 7]: 11100 ± 776 ng/mL
MRT [2, 7]: 9 ± 2.2 h
Tmax [2, 7]: 0.25 h
half-life [2, 7]: 8.6 ± 1.7 h
AUC(0-inf) [2, 8]: 2490 ± 377 ng·h/mL
Cmax [2, 8]: 227 ± 56 ng/mL
MRT [2, 8]: 13.3 ± 1.1 h
Tmax [2, 8]: 6.5 ± 3.8 h
half-life [2, 8]: 7.7 ± 0.6 h
AUC(0-inf) [2, 9]: 1560 ± 1330 ng·h/mL
Cmax [2, 9]: 129 ± 140 ng/mL
MRT [2, 9]: 11.5 ± 1.2 h
Tmax [2, 9]: 7 ± 0.35 h
half-life [2, 9]: 5.8 ± 0.9 h
CL/F ([2]; male, cynomolgus monkey, whole blood, po, 7.02 mg/kg, whole blood, 84.2 mg/m^2 (7.02 mg/kg) oral gavage, PEG400:Labrasol 1:1 v/v, seventh daily dose, fed, read-out: CL/F (converted)): 121 mL/min/kg
Vd/F [2, 9]: 61.4 ± 44 L/kg
CL/F ([2]; male, cynomolgus monkey, whole blood, po, 7.02 mg/kg, whole blood, 84.2 mg/m^2 (7.02 mg/kg) oral gavage, Solutol, seventh daily dose, fed, read-out: CL/F (converted)): 47.7 mL/min/kg
Vd/F ([2]; male, cynomolgus monkey, whole blood, po, 7.02 mg/kg, whole blood, 84.2 mg/m^2 (7.02 mg/kg) oral gavage, Solutol, seventh daily dose, fed): 31.6 ± 5 L/kg
AUC(0-inf) [2, 10]: 1520 ± 445 ng·h/mL
Cmax [2, 10]: 168 ± 35 ng/mL
MRT [2, 10]: 10.9 ± 2.2 h
Tmax [2, 10]: 3.5 ± 1.9 h
half-life [2, 10]: 6.8 ± 1.2 h
CL/F ([2]; male, cynomolgus monkey, whole blood, po, 28.06 mg/kg, whole blood, 336.7 mg/m^2 (28.06 mg/kg) oral gavage, PEG400:Labrasol 1:1 v/v, seventh daily dose, fed, read-out: CL/F (converted)): 332 mL/min/kg
Vd/F [2, 10]: 195 ± 73 L/kg
Tmax [2, 11]: 0.25 h
half-life [2, 11]: 7.6 ± 0.8 h
half-life ([2]; male, cynomolgus, cynomolgus monkey, plasma, po, 7.02 mg/kg, 84.2 mg/m^2 (7.02 mg/kg) oral gavage, Solutol, seventh daily dose, fed): 7.4 ± 0.7 h
Tmax [2, 12]: 5 ± 1.2 h
half-life [2, 12]: 6 ± 1.3 h
half-life ([2]; male, cynomolgus, cynomolgus monkey, plasma, po, 28.06 mg/kg, plasma, 336.7 mg/m^2 (28.06 mg/kg) oral gavage, PEG400:Labrasol 1:1 v/v, seventh daily dose, fed): 5 ± 1.2 h
clearance ([2]; male, cynomolgus, cynomolgus monkey, whole blood, blood clearance, 84.2 mg/m^2 (7.02 mg/kg) iv, DMSO:PEG300 15:85 v/v, fed): 3.63 mL/min/kg
CL/F [2, 13]: 0.580 ± 0.20^c,d L/hr/kg
F0-∞ [2, 13]: 100%
F0-∞ ([2]; plasma, 84.2 mg/m^2 (7.02 mg/kg) oral gavage, PEG400:Labrasol 1:1 v/v, seventh daily dose, fed): 3.3 ± 2.0^f %
F0-∞ ([2]; plasma, 84.2 mg/m^2 (7.02 mg/kg) oral gavage, Solutol, seventh daily dose, fed): 7.3 ± 2.9^i %
F0-∞ ([2]; plasma, 336.7 mg/m^2 (28.06 mg/kg) oral gavage, PEG400:Labrasol 1:1 v/v, seventh daily dose, fed): 0.72 ± 0.28^i %
CL/F [2, 14]: 0.218 ± 0.078^c,d,h L/hr/kg
F0-∞ [2, 14]: 100%
F0-∞ ([2]; whole blood, 84.2 mg/m^2 (7.02 mg/kg) oral gavage, PEG400:Labrasol 1:1 v/v, seventh daily dose, fed): 3.8 ± 3.1^e,h % and 3.8%
F0-∞ ([2]; whole blood, 84.2 mg/m^2 (7.02 mg/kg) oral gavage, Solutol, seventh daily dose, fed): 8.3 ± 3.1^e,h,i % and 8.3%
F0-∞ ([2]; whole blood, 336.7 mg/m^2 (28.06 mg/kg) oral gavage, PEG400:Labrasol 1:1 v/v, seventh daily dose, fed): 1.1 ± 0.44^h % and 1.1%

Source: patent US20120184590A1, “FORMULATIONS OF INDOLE-3-CARBINOL DERIVED ANTITUMOR AGENTS WITH INCREASED ORAL BIOAVAILABILITY” (UNIVERSITY OF KANSAS, priority 2009, published 2012)
